Ki data for 26 compounds are collected here from patent US20040087590A1, “Novel biphenyl and biphenyl-like cannabinoids” (University of Connecticut, priority 2002, published 2004).

One experiment concerns the target T1, CB1 cannabinoid receptor (Rattus norvegicus, UniProt P20272).
T1 construct: membranes were prepared from rat forebrain membranes; from tissue; host or cells: rat forebrain membranes
In words: CB1 receptor binding assay ([3H] CP-55,940 displacement, rat forebrain membranes). The note with it: 0.8 nM [3H] CP-55,940, read-out: CB1 (nM) binding affinity (Ki). On the procedure: Some inventive analogs were tested for CB2 receptor binding affinity and for CB1 receptor affinity (to determine selectivity). As used herein, “binding affinity” is represented by the Ki value which is the inhibition constant correlated with the concentration of an analog required to occupy the 50% of the total number (Bmax) of the receptors. The lower the Ki value, the higher the binding affinity. […] For the CB1 receptor binding studies, membranes were prepared from rat forebrain membranes according to the procedure of P. R. Dodd et al, A Rapid Method for Preparing Synaptosomes: Comparison with Alternative Procedures, Brain Res., 107-118 (1981). The binding of the novel analogues to the CB1 cannabinoid receptor was assessed as described in W. A. Devane et al, Determination and Characterization of a Cannabinoid Receptor in a Rat Brain, Mol. Pharmacol., 34, 605-613 (1988) and A. Charalambous et al, 5′-azido Δ^8-THC: A Novel Photoaffinity Label for the Cannabinoid Receptor, J. Med. Chem., 35, 3076-3079 (1992) with the following changes. The above articles are incorporated by reference herein.
Membranes, previously frozen at −80° C., were thawed on ice. To the stirred suspension was added three volumes of TME (25 mM Tris-HCl buffer, 5 mM MgCl2 and 1 mM EDTA) at a pH 7.4. The suspension was incubated at 4° C. for 30 min. At the end of the incubation, the membranes were pelleted and washed three times with TME.
The treated membranes were subsequently used in the binding assay described below. Approximately 30 μg of membranes were incubated in silanized 96-well microtiter plate with TME containing 0.1% essentially fatty acid-free bovine serum albumin (BSA), 0.8 nM [^3H] CP-55,940, and various concentrations of test materials in a final volume of 200 μL. The assays were incubated for 1 hour at 30° C. and then immediately filtered using Packard Filtermate 196 harvester and Whatman GF/C filterplates and washed with wash buffer (TME) containing 0.5% BSA. Radioactivity was detected using MicroScint 20 scintillation cocktail added directly to the dried filterplates, and the filterplates were counted using a Packard Instruments Top-Count. Nonspecific binding was assessed using 100 nM CP-55,940. Data collected from three independent experiments performed with duplicate determinations was normalized between 100% and 0% specific binding for [^3H] CP-55,940, determined using buffer and 100 nM CP-55,940. The normalized data was analyzed using a 4-parameter nonlinear logistic equation to yield IC50 values. Data from at least two independent experiments performed in duplicate was used to calculate IC50 values which were converted to Ki values using the assumptions of Cheng et al, Relationship Between the Inhibition Constant (Ki) and the concentration of Inhibitor which causes 50% Inhibition (IC50) of an Enzymatic Reaction, Biochem. Pharmacol., 22, 3099-3102, (1973), which is incorporated by reference herein.

The next experiment deals with T2, CB2 receptor (Mus musculus, UniProt P47936).
T2 construct: membranes were prepared from frozen mouse spleen; from tissue; host or cells: frozen mouse spleen membranes
As to the kind of experiment: CB2 receptor binding assay ([3H] CP-55,940 displacement, mouse spleen membranes). On the procedure: The treated membranes were subsequently used in the binding assay described below. Approximately 30 μg of membranes were incubated in silanized 96-well microtiter plate with TME containing 0.1% essentially fatty acid-free bovine serum albumin (BSA), 0.8 nM [^3H] […] Radioactivity was detected using MicroScint 20 scintillation cocktail added directly to the dried filterplates, and the filterplates were counted using a Packard Instruments Top-Count. […] Data collected from three independent experiments performed with duplicate determinations was normalized between 100% and 0% specific binding for [^3H] […] The normalized data was analyzed using a 4-parameter nonlinear logistic equation to yield IC50 values.
Silanized centrifuge tubes were used throughout to minimize receptor loss due to adsorption. The CB2 binding assay was conducted in the same manner as for the CB1 binding assay. The binding affinities (Ki) were also expressed in nanomoles (nM).

[1] abbreviates: mouse spleen membranes, [3H] CP-55,940, read-out: CB2 (nM) binding affinity (Ki).

Molecules are shown by their SMILES. Read-outs that look alike come from different tables or passages of the source.

The Ki is a measure of affinity in units of concentration, obtained from inhibition or displacement.

T2 sequence (P47936 whole entry): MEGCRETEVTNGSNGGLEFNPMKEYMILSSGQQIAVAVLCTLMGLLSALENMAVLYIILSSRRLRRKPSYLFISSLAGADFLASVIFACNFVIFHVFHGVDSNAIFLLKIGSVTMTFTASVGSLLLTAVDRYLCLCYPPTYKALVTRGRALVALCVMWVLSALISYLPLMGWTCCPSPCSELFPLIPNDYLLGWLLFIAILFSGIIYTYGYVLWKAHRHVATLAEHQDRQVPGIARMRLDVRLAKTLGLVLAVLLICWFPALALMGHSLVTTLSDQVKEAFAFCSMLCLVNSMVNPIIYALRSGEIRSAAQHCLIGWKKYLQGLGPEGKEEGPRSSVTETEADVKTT
T1 sequence (P20272 whole entry): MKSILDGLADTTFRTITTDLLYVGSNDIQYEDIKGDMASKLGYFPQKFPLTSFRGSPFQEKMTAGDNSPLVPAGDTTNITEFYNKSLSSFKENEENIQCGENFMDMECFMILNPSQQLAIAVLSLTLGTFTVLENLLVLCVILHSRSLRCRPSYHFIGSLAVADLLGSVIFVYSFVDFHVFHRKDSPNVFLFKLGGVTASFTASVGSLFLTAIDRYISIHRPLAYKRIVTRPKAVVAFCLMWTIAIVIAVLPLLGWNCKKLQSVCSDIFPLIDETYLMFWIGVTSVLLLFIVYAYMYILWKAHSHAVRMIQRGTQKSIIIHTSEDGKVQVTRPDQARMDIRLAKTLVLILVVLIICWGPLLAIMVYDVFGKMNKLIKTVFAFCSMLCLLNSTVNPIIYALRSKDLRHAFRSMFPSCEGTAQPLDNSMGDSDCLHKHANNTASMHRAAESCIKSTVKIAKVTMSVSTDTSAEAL

With `CCCCCCC(C)(C)c1cc(O)c(-c2cc(F)ccc2CO)c(O)c1` [Compound 26], the inhibition constant Ki on CB1 cannabinoid receptor is 24.5 nM; at CB2 receptor (setting [1]) it was 1.8 nM.

Consider `CCCCCCC(C)(C)c1cc(O)c(-c2cccc(C(=O)OCC)c2)c(O)c1` [Compound 22], for which the inhibitory constant (Ki) on CB1 cannabinoid receptor was 241 nM; at CB2 receptor (setting [1]), 0.8 nM.

With `CCCCCCCN(C)c1cc(O)c(-c2cc(OC)ccc2C(=O)N(C(C)C)C(C)C)c(OC)c1` [Compound 36], the Ki at CB1 cannabinoid receptor amounted to 1870 nM; at CB2 receptor, 154 nM.

On to `CCCCCCC(C)(C)c1cc(O)c(-c2cc(Cl)cc(Cl)c2)c(O)c1` [Compound 1], for which the Ki at CB1 cannabinoid receptor was determined as 2.6 nM; at CB2 receptor (setting [1]) it was 0.6 nM.

As to `CCCCCCC(C)(C)c1cc(O)c(-c2cc(O)ccc2CO)c(O)c1` [Compound 15], the inhibitory constant (Ki) at CB1 cannabinoid receptor is 141 nM; at CB2 receptor, 4.5 nM.

Consider `CCCCCCC(C)(C)c1cc(O)c(-c2cccc(/C=C/C(=O)OCC)c2)c(O)c1` [Compound 30], for which the figures for the Ki on CB1 cannabinoid receptor and at CB2 receptor (setting [1]) were 397 nM and 10 nM, respectively.

Regarding `CCCCCCC(C)(C)c1cc(O)c(-c2cc(C)c(OC)c(C)c2)c(O)c1` [Compound 11], the values for the Ki on CB1 cannabinoid receptor and on CB2 receptor (setting [1]) were 1080 nM and 12.8 nM, respectively.

Take `CCCCCCC(C)(C)c1cc(O)c(-c2cc(F)cc(F)c2)c(O)c1` [Compound 4]: the inhibition constant Ki at CB1 cannabinoid receptor came to 57.5 nM; at CB2 receptor (setting [1]), 8.4 nM.

`CCCCCCC(C)(C)c1cc(O)c(-c2cncc(C(=O)OCC)c2)c(O)c1` [Compound 21]: the results for the Ki on CB1 cannabinoid receptor and on CB2 receptor were 17.2 nM and 0.2 nM, respectively.

Consider `CCCCCCC(C)(C)c1cc(O)c(-c2cc(CO)ccc2CO)c(O)c1` [Compound 27], for which the Ki is 29.6 nM at CB1 cannabinoid receptor and 2.6 nM at CB2 receptor (setting [1]).

As to `CCCCCCC(C)(C)c1cc(O)c(-c2cc(Br)ccc2CO)c(O)c1` [Compound 32], the inhibition constant Ki at CB1 cannabinoid receptor amounted to 8.6 nM; on CB2 receptor it was 0.7 nM.

Consider `CCCCCCC(C)(C)c1cc(O)c(-c2cc(Cl)cc(Cl)c2)c(OC)c1` [Compound 7], for which the inhibition constant Ki on CB1 cannabinoid receptor was found to be 105 nM; on CB2 receptor (setting [1]), 13.9 nM.

Turning to `CCCCCCC(C)(C)c1cc(O)c(-c2cc(Cl)ccc2Cl)c(O)c1` [Compound 6], the Ki worked out at 7.7 nM at CB1 cannabinoid receptor and 2.6 nM on CB2 receptor (setting [1]).

On to `CCCCCCC(C)(C)c1cc(O)c(-c2cc(C)c(N)c(C)c2)c(O)c1` [Compound 12], for which the Ki was found to be 797 nM on CB1 cannabinoid receptor and 8 nM at CB2 receptor (setting [1]).

With `CCCCCCC(C)(C)c1cc(O)c(-c2cc(O)ccc2CCCO)c(O)c1` [Compound 25], the Ki was found to be 12.2 nM on CB1 cannabinoid receptor and 1 nM at CB2 receptor (setting [1]).

Turning to `CCCCCCC(C)(C)c1cc(O)c(-c2c(Cl)ccc(Cl)c2Cl)c(O)c1` [Compound 9], the values for the inhibitory constant (Ki) on CB1 cannabinoid receptor and on CB2 receptor were 23.2 nM and 3.4 nM, respectively.

`CCCCCCC(C)(C)c1cc(O)c(-c2cc(C)c(O)c(C)c2)c(O)c1` [Compound 10]: the results for the Ki on CB1 cannabinoid receptor and on CB2 receptor (setting [1]) were 1360 nM and 15.3 nM, respectively.

Consider `CCCCCCC(C)(C)c1cc(O)c(-c2ccccc2CO)c(O)c1` [Compound 14], for which the Ki was 53.8 nM on CB1 cannabinoid receptor and 1.4 nM at CB2 receptor (setting [1]).

On to `CCCCCCC(C)(C)c1cc(O)c(-c2cccc(C(C)=O)c2)c(O)c1` [Compound 24], for which the values for the Ki at CB1 cannabinoid receptor and on CB2 receptor were 297 nM and 11.3 nM, respectively.

As to `CCCCCCC(C)(C)c1cc(O)c(-c2cc([N+](=O)[O-])cc([N+](=O)[O-])c2)c(O)c1` [Compound 3], the inhibitory constant (Ki) at CB1 cannabinoid receptor worked out at 199 nM; on CB2 receptor (setting [1]), 3.5 nM.

Consider `CCCCCCC(C)(C)c1cc(O)c(-c2cccc(C#N)c2)c(O)c1` [Compound 31], for which the figures for the Ki on CB1 cannabinoid receptor and on CB2 receptor (setting [1]) were 20 nM and 1.1 nM, respectively.

With `CCCCCCC(C)(C)c1cc(O)c(-c2cc(CO)ccc2C)c(O)c1` [Compound 28], the Ki on CB1 cannabinoid receptor came out at 70.4 nM; at CB2 receptor (setting [1]), 7 nM.

Regarding `CCCCCCC(C)(C)c1cc(O)c(-c2c(F)cccc2F)c(O)c1` [Compound 8], the inhibition constant Ki is 40.3 nM on CB1 cannabinoid receptor and 13.4 nM on CB2 receptor (setting [1]).

With `CCCCCCC(C)(C)c1cc(O)c(-c2cc(C)ccc2F)c(O)c1` [Compound 5], the Ki on CB1 cannabinoid receptor turned out to be 6.5 nM; on CB2 receptor (setting [1]), 2.3 nM.

Consider `CCCCCCC(C)(C)c1cc(O)c(-c2ccc(C(=O)OCC)o2)c(O)c1` [Compound 29], for which the inhibition constant Ki on CB1 cannabinoid receptor is 3220 nM; at CB2 receptor, 35.4 nM.

As for `CCCCCCC(C)(C)c1cc(O)c(-c2cc(C(F)(F)F)cc(C(F)(F)F)c2)c(O)c1` [Compound 2], the Ki at CB1 cannabinoid receptor was 9.7 nM; at CB2 receptor (setting [1]) it was 0.9 nM.
